Results: ChEMBL document CHEMBL4420066, “Aryl amine substituted quinoxaline used as anticancer drugs” (2017)
Calls of active or inactive are those of the source. The calls are words filed in the database; no cut-off is given here.

How the values were obtained:
[1] = test system: Hep 3B2; assay: Induction of apoptosis in human Hep3B cells assessed as accumulation at subG1 phase at 0.5 to 4 uM by flow cytometry; format: functional, cell-based
[2] = test system: Hep 3B2; assay: Inhibition of PP2A-B5 protein expression in human Hep3B cells at 1 uM incubated for 24 hrs by Western blotting analysis; format: functional, cell-based
[3] = test system: Hep 3B2; assay: Inhibition of CIP2A protein expression in human Hep3B cells assessed as CIP2A protein expression ratio level at 4 uM by Western blotting analysis (Rvb =1); format: functional
[4] = species: Homo sapiens; assay: Activation of PP2A in human SKHEP1 cells assessed as increase in protein phosphatase activity at 1 uM incubated for 24 hrs using phosphopeptide substrate incubated for 10 mins by malachite green-phosphate complex assay; format: cell-based
[5] = species: Homo sapiens; assay: Induction of apoptosis in human PLC5 cells assessed as induction of DNA fragmentation at 1 uM incubated for 24 hrs by ELISA; format: functional, cell-based
[6] = Induction of apoptosis in human PLC5 cells >= 2 uM incubated for 48 hrs by annexin-V-FITC staining based by flow cytometry relative to control; format: functional
[7] = test system: SK-HEP1; assay: Inhibition of CIP2A protein expression in human SKHEP1 cells by Western blotting analysis; format: functional, cell-based
[8] = species: Homo sapiens; assay: Induction of apoptosis in human PLC5 cells at 2 uM incubated for 24 hrs in presence of PP2A-C siRNA by annexin-V-FITC staining based by flow cytometry; format: functional, cell-based
[9] = test system: Hep 3B2; assay: Inhibition of CIP2A protein expression in human Hep3B cells assessed as CIP2A protein expression ratio level at 1 uM by Western blotting analysis (Rvb =1); format: functional
[10] = test system: HA22T cell line; assay: Inhibition of CIP2A protein expression in human HA22T cells by Western blotting analysis; format: functional, cell-based
[11] = species: Homo sapiens; assay: Inhibition of human CIP2A gene promoter in human PLC5 cells assessed as inhibition of ELK1 protein expression at 2 uM by Western blotting analysis; format: cell-based
[12] = test system: Hep 3B2; assay: Inhibition of PP2A-A protein expression in human Hep3B cells at 1 uM incubated for 24 hrs by Western blotting analysis; format: functional, cell-based
[13] = biological target: T1, Serine/threonine-protein kinase AKT (Homo sapiens) (UniProt P31751+Q9Y243+P31749); assay: Inhibition of Akt phosphorylation at S473 residue in human PLC5 cells at 2 uM incubated for 24 hrs in presence of PP2A-C siRNA by Western blotting analysis; format: cell-based
[14] = biological target: T1, Serine/threonine-protein kinase AKT (Homo sapiens); assay: Inhibition of Akt phosphorylation at S473 residue in human HA22T cells at 1 uM by Western blotting analysis; format: cell-based; conditions: TDE = time-dependent effect
[15] = test system: SK-HEP1; assay: Inhibition of PP2A-A protein expression in human SKHEP1 cells at 1 uM incubated for 24 hrs by Western blotting analysis; format: functional, cell-based
[16] = test system: HA22T cell line; assay: Inhibition of CIP2A protein expression in human HA22T cells assessed as CIP2A protein expression ratio level at 4 uM by Western blotting analysis (Rvb =1); format: functional
[17] = species: Homo sapiens; assay: Cytotoxicity against human PLC5 cells assessed as reduction in cell viability at 0.5 to 4 uM incubated for 48 hrs by MTT assay; format: functional, cell-based
[18] = species: Homo sapiens; assay: Inhibition of ELK1 protein expression in human PLC5 cells at 2 uM by Western blotting analysis; format: functional, cell-based
[19] = Inhibition of CIP2A protein expression in human PLC5 cells assessed as CIP2A protein expression ratio level at 1 uM by Western blotting analysis (Rvb =1); format: functional
[20] = species: Homo sapiens; assay: Inhibition of CIP2A mRNA expression in human PLC5 cells at 1 to 4 uM by RT-PCR analysis; format: functional, cell-based
[21] = species: Homo sapiens; assay: Inhibition of PP2A-B5 protein expression in human PLC5 cells at 1 uM incubated for 24 hrs by Western blotting analysis; format: functional, cell-based
[22] = test system: Hep 3B2; assay: Induction of necrosis in human Hep3B cells >= 2 uM incubated for 48 hrs by annexin-V-FITC staining based by flow cytometry relative to control; format: functional
[23] = test system: SK-HEP1; assay: Induction of apoptosis in human SKHEP1 cells >= 2 uM incubated for 48 hrs by annexin-V-FITC staining based by flow cytometry relative to control; format: functional
[24] = species: Homo sapiens; assay: Activation of PP2A in human Hep3B cells assessed as minimal concentration causing increase in protein phosphatase activity incubated for 24 hrs using phosphopeptide substrate incubated for 10 mins by malachite green-phosphate complex assay; format: cell-based
[25] = species: Homo sapiens; assay: Induction of apoptosis in human PLC5 cells assessed as caspase-9 activation at 0.5 to 4 uM incubated for 48 hrs by Western blotting analysis; format: functional, cell-based
[26] = biological target: T1, Serine/threonine-protein kinase AKT (Homo sapiens); assay: Inhibition of Akt phosphorylation at S473 residue in human SKHEP1 cells by Western blotting analysis; format: cell-based
[27] = species: Homo sapiens; assay: Activation of PP2A in human PLC5 cells assessed as increase in protein phosphatase activity at 1 uM incubated for 24 hrs using phosphopeptide substrate incubated for 10 mins by malachite green-phosphate complex assay; format: cell-based
[28] = species: Homo sapiens; assay: Activation of PP2A in human HA22T cells assessed as minimal concentration causing increase in protein phosphatase activity incubated for 24 hrs using phosphopeptide substrate incubated for 10 mins by malachite green-phosphate complex assay; format: cell-based
[29] = test system: SK-HEP1; assay: Induction of apoptosis in human SKHEP1 cells assessed as induction of PARP cleavage at 0.5 to 4 uM incubated for 48 hrs by Western blotting analysis; format: functional, cell-based
[30] = Inhibition of CIP2A protein expression in human PLC5 cells assessed as CIP2A protein expression ratio level at 4 uM by Western blotting analysis (Rvb =1); format: functional
[31] = biological target: T1, Serine/threonine-protein kinase AKT (Homo sapiens); assay: Inhibition of Akt phosphorylation at S473 residue in human Hep3B cells by Western blotting analysis; format: cell-based
[32] = test system: HA22T cell line; assay: Inhibition of CIP2A protein expression in human HA22T cells assessed as CIP2A protein expression ratio level at 1 uM by Western blotting analysis (Rvb =1); format: functional
[33] = species: Homo sapiens; assay: Inhibition of human CIP2A gene promoter activity in human PLC5 cells by luciferase reporter gene assay; format: cell-based
[34] = test system: SK-HEP1; assay: Induction of apoptosis in human SKHEP1 cells assessed as caspase-9 activation at 0.5 to 4 uM incubated for 48 hrs by Western blotting analysis; format: functional, cell-based
[35] = test system: Mus musculus; assay: Activation of PP2A activity in tumor of human PLC5 cells xenografted in mouse at 10 mg/kg dosed for 4 weeks; format: functional, organism-based
[36] = species: Homo sapiens; assay: Induction of apoptosis in human PLC5 cells with ectopic over expression of myc-tagged CIP2A at 2 uM incubated for 24 hrs by annexin-V-FITC staining based by flow cytometry; format: functional, cell-based
[37] = species: Homo sapiens; assay: Inhibition of human CIP2A gene promoter in human PLC5 cells assessed as inhibition of ELK1 protein expression by Western blotting analysis; format: cell-based
[38] = test system: Hep 3B2; assay: Induction of apoptosis in human Hep3B cells assessed as caspase-9 activation at 0.5 to 4 uM incubated for 48 hrs by Western blotting analysis; format: functional, cell-based
[39] = test system: Hep 3B2; assay: Induction of apoptosis in human Hep3B cells assessed as induction of DNA fragmentation at 1 uM incubated for 24 hrs by ELISA; format: functional, cell-based
[40] = test system: HA22T cell line; assay: Inhibition of PP2A-C protein expression in human HA22T cells at 1 uM incubated for 24 hrs by Western blotting analysis; format: functional, cell-based

T1 sequence (P31749 whole entry, looked up): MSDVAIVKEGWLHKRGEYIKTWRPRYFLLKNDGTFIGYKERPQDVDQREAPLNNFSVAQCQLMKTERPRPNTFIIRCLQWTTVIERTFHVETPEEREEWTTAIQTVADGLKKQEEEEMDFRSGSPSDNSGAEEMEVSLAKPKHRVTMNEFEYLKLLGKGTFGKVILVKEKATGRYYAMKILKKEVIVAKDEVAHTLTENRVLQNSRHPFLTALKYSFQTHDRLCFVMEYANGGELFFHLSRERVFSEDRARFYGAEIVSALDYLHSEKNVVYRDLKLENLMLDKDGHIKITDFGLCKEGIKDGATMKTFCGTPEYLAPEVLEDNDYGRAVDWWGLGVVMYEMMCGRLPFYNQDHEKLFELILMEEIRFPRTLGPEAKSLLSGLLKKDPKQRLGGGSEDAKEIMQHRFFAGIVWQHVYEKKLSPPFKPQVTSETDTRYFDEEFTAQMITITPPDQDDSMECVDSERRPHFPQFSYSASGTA
T1 sequence (P31751 whole entry, looked up): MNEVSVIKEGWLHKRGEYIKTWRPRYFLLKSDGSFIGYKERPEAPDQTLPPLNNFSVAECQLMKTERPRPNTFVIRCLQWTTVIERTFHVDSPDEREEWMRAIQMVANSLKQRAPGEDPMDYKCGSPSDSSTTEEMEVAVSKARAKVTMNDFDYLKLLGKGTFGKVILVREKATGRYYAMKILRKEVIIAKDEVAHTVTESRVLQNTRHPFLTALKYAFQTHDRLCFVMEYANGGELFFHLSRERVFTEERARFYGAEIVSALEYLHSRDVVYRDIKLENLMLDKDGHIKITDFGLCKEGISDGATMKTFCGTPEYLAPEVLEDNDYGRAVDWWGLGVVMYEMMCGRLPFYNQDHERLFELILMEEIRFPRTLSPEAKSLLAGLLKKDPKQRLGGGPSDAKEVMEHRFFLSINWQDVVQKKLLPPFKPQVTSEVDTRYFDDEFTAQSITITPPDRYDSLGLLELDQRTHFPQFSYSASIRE
T1 sequence (Q9Y243 whole entry, looked up): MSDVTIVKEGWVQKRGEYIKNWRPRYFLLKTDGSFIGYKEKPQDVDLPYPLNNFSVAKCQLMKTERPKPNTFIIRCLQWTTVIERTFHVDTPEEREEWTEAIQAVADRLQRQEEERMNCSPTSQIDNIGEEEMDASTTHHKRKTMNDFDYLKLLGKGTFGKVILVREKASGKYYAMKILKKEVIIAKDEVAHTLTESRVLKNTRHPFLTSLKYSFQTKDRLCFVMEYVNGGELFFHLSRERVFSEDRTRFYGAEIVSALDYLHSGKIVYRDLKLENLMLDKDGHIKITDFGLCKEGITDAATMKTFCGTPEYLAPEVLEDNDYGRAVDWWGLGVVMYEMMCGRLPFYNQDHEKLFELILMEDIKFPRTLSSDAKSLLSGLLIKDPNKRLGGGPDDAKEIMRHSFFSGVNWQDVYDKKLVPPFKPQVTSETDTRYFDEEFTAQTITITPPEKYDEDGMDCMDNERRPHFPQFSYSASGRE

- inhibition [13]: inactive
- inhibition [14]: Tde
- inhibition [26]: Dose-dependent effect
- inhibition [31]: Dose-dependent effect
SMILES: C#Cc1cccc(Nc2nc3ccccc3nc2Nc2cccc(C#C)c2)c1
- Activity [1]: Active
- inhibition [2]: inactive
- Ratio [3]: 0.13
- Activity [4]: Active
- Activity [5]: Active
- Activity [6]: 50%
- inhibition [7]: Dose-dependent effect
- Activity [8]: inactive
- Ratio [9]: 0.57
- inhibition [10]: Dose-dependent effect
- inhibition [11]: Active
- inhibition [12]: inactive
- inhibition [15]: inactive
- Ratio [16]: 0.01
- Activity [17]: Active
- inhibition [18]: inactive
- Ratio [19]: 0.28
- inhibition [20]: Active
- inhibition [21]: inactive
- Activity [22]: 50%
- Activity [23]: 50%
- MEC [24]: 100 to 200 nM
- Activity [25]: Dose-dependent effect
- Activity [27]: Active
- MEC [28]: 100 to 200 nM
- Activity [29]: Dose-dependent effect
- Ratio [30]: 0.01
- Ratio [32]: 0.84
- inhibition [33]: Dose-dependent effect
- Activity [34]: Dose-dependent effect
- Activity [35]: Active
- Activity [36]: inactive
- inhibition [37]: Dose-dependent effect
- Activity [38]: Dose-dependent effect
- Activity [39]: Active
- inhibition [40]: inactive
